Laboratory results taken from patent US7361658B2, “2-acylaminothiazole derivative or salt thereof” (Astellas Pharma Inc., priority 2003, dated 2008).
Where two headings read alike, the source gives them in different places.

Tests used:
human c-mpl-Ba/F3 cells [1] = biological target: T1, human c-mpl-Ba/F3 cells (Homo sapiens, UniProt P40238); experiment: Human c-mpl-Ba/F3 cell growth test; type: cell-based; conditions: for Emax / Efficacy: maximum cell growth activity; for Emax: read-out: Efficacy
T1 construct: expressed in transfected cells; host or cells: Ba/F3 (murine pro-B cells) expressing human c-mpl
T1 sequence (P40238 26-635): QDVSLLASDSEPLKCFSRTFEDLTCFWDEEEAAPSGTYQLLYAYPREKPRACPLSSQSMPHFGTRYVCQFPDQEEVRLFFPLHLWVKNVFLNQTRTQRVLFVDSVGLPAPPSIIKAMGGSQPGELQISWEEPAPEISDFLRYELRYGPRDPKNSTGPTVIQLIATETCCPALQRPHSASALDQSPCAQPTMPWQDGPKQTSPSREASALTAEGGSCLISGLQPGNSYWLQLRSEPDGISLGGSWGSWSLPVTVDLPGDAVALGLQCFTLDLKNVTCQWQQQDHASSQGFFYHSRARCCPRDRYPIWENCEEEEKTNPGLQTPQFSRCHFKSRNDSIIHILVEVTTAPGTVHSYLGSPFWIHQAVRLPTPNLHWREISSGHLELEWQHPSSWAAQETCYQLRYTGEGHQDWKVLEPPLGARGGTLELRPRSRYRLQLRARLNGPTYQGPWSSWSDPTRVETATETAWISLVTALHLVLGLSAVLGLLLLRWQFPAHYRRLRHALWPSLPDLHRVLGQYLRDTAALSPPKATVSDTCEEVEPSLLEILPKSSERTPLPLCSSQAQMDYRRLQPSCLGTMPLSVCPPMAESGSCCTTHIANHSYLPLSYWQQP
Procedure: (i) Human c-mpl-Ba/F3 Cell Growth Test
In a 96-well microplate, 2×10^5 cells/ml of human c-mpl-Ba/F3 cells were cultured at 37° C. in 10% fetal bovine serum-containing RPMI1640 medium (100 μl/well) containing each test compound at each concentration. After 24 hours from the start-up of culture, 10 μl/well of WST-1/1-methoxy PMS (cell counting kit, Dojin) was added. Immediately after addition and 2 hours after addition, absorbance of A450/A650 was measured with a microplate reader (Model 3350: Bio-Rad), and an increase in absorbance for 2 hours was defined as a growth activity of each test compound.
pot: Concentration of each test compound at which to accelerate cell growth by 30% of a maximum cell growth activity of compound A (compound A and rhTPO in rhTPO)
Efficacy: Maximum cell growth activity of each test compound when a maximum cell growth activity of compound A (compound A and rhTPO in rhTPO) is defined as 100%.
Compound A refers to a compound in Example 9 of the foregoing Patent Document 10.

human c-mpl-Ba/F3 cells [2] = biological target: T1, human c-mpl-Ba/F3 cells; experiment: Mouse oral administration test: human c-mpl-Ba/F3 cell growth activity of a plasma after oral administration; type: in vivo; conditions: male ICR mouse, plasma 2 h after administration, maximum activity of each test compound = 100%
Procedure: (iii) Mouse Oral Administration Test
3 mg/kg or 10 mg/kg (100 mg/kg in Comparative Compounds 1 to 3) of a test compound dissolved or suspended in a 0.5% methylcellulose aqueous solution was orally administered to a male ICR mouse. After 2 hours from administration, a blood was sampled from the subabdominal large vein using 1/10-volume 3.8% sodium citrate as an anticoagulant. Centrifugation was performed at 12,000 rpm for 3 minutes. The resulting plasma was heated at 56° C. for 30 minutes, and added to a system of the human c-mpl-Ba/F3 cell growth test described in (i) such that the final concentration of the plasma reached 0.3%, 1% or 3% (10% in Comparative Compounds 1 to 3) to measure a cell growth activity. The cell growth activity (%) of each plasma was measured when the maximum cell growth activity of each test compound was defined as 100%.

[3] = concentration at which cell growth is accelerated by 30% of the maximum cell growth activity of compound A, 24 h culture
[4] = maximum of compound A defined as 100%
[5] = 100 mg/kg p.o., dilution rate 10%
[6] = concentration at which cell growth is accelerated by 30% of the maximum cell growth activity of rhTPO (applies to compound A and rhTPO)
[7] = maximum of rhTPO defined as 100% (applies to compound A and rhTPO)
[8] = 3 mg/kg p.o., dilution rate 0.3%

| Molecule | Pot (human c-mpl-Ba/F3 cells [1]; [3]) | Emax (human c-mpl-Ba/F3 cells [1]; [4]) | further results |
| --- | --- | --- | --- |
| O=C1NC(=S)S/C1=C\c1ccc(C(=O)Nc2nc(-c3ccc(Cl)c(Cl)c3)cs2)cc1 [Comparative Compound 1, reference compound] | 4.4 nM | 101% | Cell growth activity (human c-mpl-Ba/F3 cells [2]; [5]): <10% |
| O=C(O)/C(Cl)=C/c1ccc(C(=O)Nc2nc(-c3ccc(Cl)c(Cl)c3)cs2)cc1 [Comparative Compound 2, reference compound] | 2.1 nM | 96% | Cell growth activity (human c-mpl-Ba/F3 cells [2]; [5]): <10% |
| Cc1sc(NC(=O)c2ccc(/C=C(\Cl)C(=O)O)cc2)nc1-c1cccc(C(F)(F)F)c1 [Comparative Compound 3, reference compound] | 6.9 nM | 96% | Cell growth activity (human c-mpl-Ba/F3 cells [2]; [5]): <10% |
| COc1cc(C(=O)Nc2nc(-c3ccc(F)cc3)c(N3CCN(C4CCCCC4)CC3)s2)ccn1 [Comparative Compound 4, reference compound] | 251 nM | 95% | – |
| O=C(Nc1nc(-c2cc(Cl)cs2)c(N2CCN(C3CCCCC3)CC2)s1)c1ccc(OCCO)c(Cl)c1 [Compound A, reference compound] | – | – | Pot (human c-mpl-Ba/F3 cells [1]; [6]): 10 nM; Emax (human c-mpl-Ba/F3 cells [1]; [7]): 87% |
| CN(C)Cc1sc(NC(=O)c2cnc(N3CCC(C(=O)O)CC3)c(Cl)c2)nc1-c1cc(Cl)cs1 [Example 65, 1-(3-chloro-5-{[4-(4-chlorothiophen-2-yl)-5-(dimethylaminomethyl)thiazol-2-yl]carbamoyl}-2-pyridyl)piperidine-4-carboxylic acid] | 4.3 nM | 114% | Cell growth activity (human c-mpl-Ba/F3 cells [2]; 3 mg/kg p.o., dilution rate 3%): ≧80% |
| O=C(Nc1nc(-c2cc(Cl)cs2)c(CN2CCCCCC2)s1)c1cnc(N2CCC(C(=O)O)CC2)c(Cl)c1 [Example 84, 1-(5-{[5-(azepan-1-ylmethyl)-4-(4-chlorothiophen-2-yl)thiazol-2-yl]carbamoyl}-3-chloro-2-pyridyl)piperidine-4-carboxylic acid] | 4.2 nM | 103% | Cell growth activity (human c-mpl-Ba/F3 cells [2]; 3 mg/kg p.o., dilution rate 1%): ≧80% |
| O=C(Nc1nc(-c2cc(Cl)cs2)c(CN2CCCCCCC2)s1)c1cnc(N2CCC(C(=O)O)CC2)c(Cl)c1 [Example 85] | 3.3 nM | – | Efficacy (human c-mpl-Ba/F3 cells [1]; [4]): 107%; Cell growth activity (human c-mpl-Ba/F3 cells [2]; 3 mg/kg p.o., dilution rate 1%): ≧80% |
| CN(Cc1sc(NC(=O)c2cnc(N3CCC(C(=O)O)CC3)c(Cl)c2)nc1-c1cc(Cl)cs1)C1CCCCC1 [Example 90, 1-{3-chloro-5-[(4-(4-chlorothiophen-2-yl)-5-{[cyclohexyl(methyl)amino]methyl}thiazol-2-yl)carbamoyl]-2-pyridyl}piperidine-4-carboxylic acid] | 2.0 nM | 94% | Cell growth activity (human c-mpl-Ba/F3 cells [2]; [8]): ≧80% |
| CN(Cc1sc(NC(=O)c2cnc(N3CCC(C(=O)O)CC3)c(Cl)c2)nc1-c1cc(Cl)cs1)C1CC1 [Example 101, 1-{3-chloro-5-[(4-(4-chlorothiophen-2-yl)-5-{[cyclopropyl(methyl)amino]methyl}thiazol-2-yl)carbamoyl]-2-pyridyl}piperidine-4-carboxylic acid] | 3.1 nM | 108% | Cell growth activity (human c-mpl-Ba/F3 cells [2]; 3 mg/kg p.o., dilution rate 1%): 76% |
| C[C@@H]1CCCN1Cc1sc(NC(=O)c2cnc(N3CCC(C(=O)O)CC3)c(Cl)c2)nc1-c1cc(Cl)cs1 [Example 107, 1-{3-chloro-5-[(4-(4-chlorothiophen-2-yl)-5-{[(2R)-2-methylpyrrolidin-1-yl]methyl}thiazol-2-yl)carbamoyl]-2-pyridyl}piperidine-4-carboxylic acid] | 1.5 nM | 112% | – |
| C[C@H]1CCN(Cc2sc(NC(=O)c3cnc(N4CCC(C(=O)O)CC4)c(Cl)c3)nc2-c2cc(Cl)cs2)C1 [Example 109, 1-{3-chloro-5-[(4-(4-chlorothiophen-2-yl)-5-{[(3S)-3-methylpyrrolidin-1-yl]methyl}thiazol-2-yl)carbamoyl]-2-pyridyl}piperidine-4-carboxylic acid] | 3.9 nM | 95% | Cell growth activity (human c-mpl-Ba/F3 cells [2]; 3 mg/kg p.o., dilution rate 1%): 59% |
| CO[C@@H](C)CN(C)Cc1sc(NC(=O)c2cnc(N3CCC(C(=O)O)CC3)c(Cl)c2)nc1-c1cc(Cl)cs1 [Example 111, 1-{3-chloro-5-[(4-(4-chlorothiophen-2-yl)-5-{[[(2S)-2-methoxypropyl](methyl)amino]methyl}thiazol-2-yl)carbamoyl]-2-pyridyl}piperidine-4-carboxylic acid] | 6.0 nM | 87% | – |
| CCCCN(C)Cc1sc(NC(=O)c2cnc(N3CCC(CO)CC3)c(Cl)c2)nc1-c1cc(Cl)cs1 [Example 150, N-[5-{[butyl(methyl)amino]methyl}-4-(4-chlorothiophen-2-yl)thiazol-2-yl]-5-chloro-6-[4-(hydroxymethyl)piperidino]nicotinamide] | 3.6 nM | 102% | Cell growth activity (human c-mpl-Ba/F3 cells [2]; [8]): 28% |
| CCCCN(C)Cc1sc(NC(=O)c2cnc(NCCCO)c(Cl)c2)nc1-c1cc(Cl)cs1 [Example 151, N-[5-{[butyl(methyl)amino]methyl}-4-(4-chlorothiophen-2-yl)thiazol-2-yl]-5-chloro-6-[(3-hydroxypropyl)amino]nicotinamide] | 8.4 nM | 99% | Cell growth activity (human c-mpl-Ba/F3 cells [2]; 10 mg/kg p.o., dilution rate 3%): 24% |
| C[C@@H]1CCCN1Cc1sc(NC(=O)c2cnc(N3CC(CC(=O)O)C3)c(Cl)c2)nc1-c1cc(Cl)cs1 [Example 222, (1-{3-chloro-5-[(4-(4-chlorothiophen-2-yl)-5-{[(2R)-2-methylpyrrolidin-1-yl]methyl}thiazol-2-yl)carbamoyl]-2-pyridyl}azetidin-3-yl)acetic acid] | 4.4 nM | 102% | – |
| C[C@@H]1CCCN1Cc1sc(NC(=O)c2cnc(N(C)CCCC(=O)O)c(Cl)c2)nc1-c1cc(Cl)cs1 [Example 226, 4-[{3-chloro-5-[(4-(4-chlorothiophen-2-yl)-5-{[(2R)-2-methylpyrrolidin-1-yl]methyl}thiazol-2-yl)carbamoyl]-2-pyridyl}(methyl)amino]butyric acid] | 4.6 nM | 88% | – |
| CC(C)N(C)Cc1sc(NC(=O)c2cnc(N(C)CCCC(=O)O)c(Cl)c2)nc1-c1cc(Cl)cs1 [Example 227, 4-[{3-chloro-5-[(4-(4-chlorothiophen-2-yl)-5-{[isopropyl(methyl)amino]methyl}thiazol-2-yl)carbamoyl]-2-pyridyl}(methyl)amino]butyric acid] | 3.2 nM | 88% | – |
| C[C@H]1CCCN1Cc1sc(NC(=O)c2cnc(N3CCC(C(=O)O)CC3)c(F)c2)nc1-c1cc(Cl)cs1 [Example 314, 1-{5-[(4-(4-chlorothiophen-2-yl)-5-{[(2S)-2-methylpyrrolidin-1-yl]methyl}thiazol-2-yl)carbamoyl]-3-fluoro-2-pyridyl}piperidine-4-carboxylic acid] | – | – | Cell growth activity (human c-mpl-Ba/F3 cells [2]; 3 mg/kg p.o., dilution rate 3%): 52% |
| rhTPO: thrombopoietin (TPO), a c-Mpl ligand; a protein | – | – | Pot (human c-mpl-Ba/F3 cells [1]; [6]): 0.012 nM; Efficacy (human c-mpl-Ba/F3 cells [1]; [7]): 100% |
